# Data as given in patent publication US20230313305A1, “METHODS AND USES OF INFLAMMATORY BOWEL DISEASE BIOMARKERS” (Washington University, priority 2017, published 2023).
# What was measured:
# colon spheroids = test: TGFβ on colon spheroids, serpine1/PAI-1 expression; assay type: cell-based; details: colon spheroids (FIG. 25)
# From the text: FIG. 25. TGFβ drives serpine1/PAI-1 expression in the colon spheroids (negative feedback loop)
# [1] = system: primary intestinal epithelial cells; test: IL-17A added to primary cultured intestinal epithelial cells (microarray, qPCR); assay type: cell-based, mouse; details: 20 ng/ml IL-17A
# From the text: Despite the important role of IL-17 in autoimmunity and inflammatory bowel disease (IBD) its function in the mucosa in disease is still unclear. In IBD, IL-17 is produced in part by mucosal pro-inflammatory Th17 cells. […] To investigate this possibility, we treated primary cultured intestinal epithelial cells with IL-17 and conducted transcriptomic analysis. […] This process was inhibited by PAI-1. […] This study identifies a new pathway in UC where dysregulated PAI-1 leads to exacerbated inflammation and disease activity by blocking an IL-17-tPA-TGF-β axis.
# From colon epithelial lines n=4; Stem cells; Stem cells (2 days); DM; Colonocytes; With and without 20 ng/ml IL-17A.
# We sought a marker of intestinal inflammation in IBD that is downstream of multiple inflammatory pathways. We first performed RNA microarray analysis on primary mouse intestinal epithelial cells treated these cells with IL-17 (a known important inflammatory cytokine in IBD). We cross-referenced a list of 23 molecules with enhanced mRNA production in these cells grown multiple states to lists of molecules with enhanced expression in IBD colon biopsies. We identified that the Plat/Serpine1 pathway was enriched. […]
Substance,serpine1/PAI-1 expression (colon spheroids),production of tissue plasminogen activator (tPA) by epithelial cells [1]
TGFβ,drives,
IL-17: inflammatory cytokine added to primary intestinal epithelial cells,,induced
